Measurements: patent publication US20240043404A1 (AbbVie Inc., priority 2009, published 2024)

System: RS4;11 cells
Assay: RS4;11 cell viability assay (CellTiter Glo);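 further: acute lymphoblastic leukemia line RS4,11, EC50 derived from percentage of viable cells after treatment relative to untreated controls, cell killing taken as a measure of Bcl-2 inhibition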
Format: cell-based, human
Details: Homo sapiens, RS4-11, 48 h, 50,000 cells per well, 10% human serum, 48 hours; read-out: RS4; 11 EC50 Values
Protocol: The acute lymphoblastic leukemia (ALL) cell line RS4;11 was used as the primary human cell line to assess the cellular activity of Bcl-2 selective agents in vitro and their efficacy in vivo.
Cell cytotoxicity EC50 values were assessed using CellTiter Glo (Promega) according to the manufacturer's recommendations. The EC50 values were determined as a percentage of viable cells following treatment compared to the untreated control cells.

EC50	Structure (SMILES)
> 5000 nM	CC1(C)CCC(CN2CCN(c3ccc(C(=O)NS(=O)(=O)c4cnc(OCC5CCOCC5)c(C(N)=O)c4)c(Oc4cnc5[nH]ccc5c4)c3)CC2)=C(c2ccc(Cl)cc2)C1 [Example 46, 5-({[4-(4-{[2-(4-chlorophenyl)-4,4-dimethylcyclohex-1-en-1-yl]methyl}piperazin-1-yl)-2-(1H-pyrrolo[2,3-b]pyridin-5-yloxy)benzoyl]amino}sulfonyl)-2-(tetrahydro-2H-pyran-4-ylmethoxy)nicotinamide]
32.6 nM	CN1CCC(COc2ncc(S(=O)(=O)NC(=O)c3ccc(N4CCN(CC5=C(c6ccc(Cl)cc6)CC(C)(C)CC5)CC4)cc3Oc3cnc4[nH]ccc4c3)cc2Br)CC1 [Example 47, N-({5-bromo-6-[(1-methylpiperidin-4-yl)methoxy]pyridin-3-yl}sulfonyl)-4-(4-{[2-(4-chlorophenyl)-4,4-dimethylcyclohex-1-en-1-yl]methyl}piperazin-1-yl)-2-(1H-pyrrolo[2,3-b]pyridin-5-yloxy)benzamide]
3.33 nM	CN1CCC(COc2ccc(S(=O)(=O)NC(=O)c3ccc(N4CCN(CC5=C(c6ccc(Cl)cc6)CC(C)(C)CC5)CC4)cc3Oc3cnc4[nH]ccc4c3)cc2[N+](=O)[O-])CC1 [Example 48, 4-(4-{[2-(4-chlorophenyl)-4,4-dimethylcyclohex-1-en-1-yl]methyl}piperazin-1-yl)-N-({4-[(1-methylpiperidin-4-yl)methoxy]-3-nitrophenyl}sulfonyl)-2-(1H-pyrrolo[2,3-b]pyridin-5-yloxy)benzamide]
352 nM	CC1(C)CCC(CN2CCN(c3ccc(C(=O)NS(=O)(=O)c4cnc(OCC5COCCO5)c(C#N)c4)c(Oc4cnc5[nH]ccc5c4)c3)CC2)=C(c2ccc(Cl)cc2)C1 (stereo not shown) [Example 49, 4-(4-{[2-(4-chlorophenyl)-4,4-dimethylcyclohex-1-en-1-yl]methyl}piperazin-1-yl)-N-{[5-cyano-6-(1,4-dioxan-2-ylmethoxy)pyridin-3-yl]sulfonyl}-2-(1H-pyrrolo[2,3-b]pyridin-5-yloxy)benzamide]
313 nM	CC1(C)CCC(CN2CCN(c3ccc(C(=O)NS(=O)(=O)c4cnc(OCC5COCCO5)c(Br)c4)c(Oc4cnc5[nH]ccc5c4)c3)CC2)=C(c2ccc(Cl)cc2)C1 (stereo not shown) [Example 50, N-{[5-bromo-6-(1,4-dioxan-2-ylmethoxy)pyridin-3-yl]sulfonyl}-4-(4-{[2-(4-chlorophenyl)-4,4-dimethylcyclohex-1-en-1-yl]methyl}piperazin-1-yl)-2-(1H-pyrrolo[2,3-b]pyridin-5-yloxy)benzamide]
23.1 nM	CC1(C)CCC(CN2CCN(c3ccc(C(=O)NS(=O)(=O)c4ccc(OCC5CCOC(C)(C)C5)c([N+](=O)[O-])c4)c(Oc4cnc5[nH]ccc5c4)c3)CC2)=C(c2ccc(Cl)cc2)C1 (stereo not shown) [Example 51, 4-(4-{[2-(4-chlorophenyl)-4,4-dimethylcyclohex-1-en-1-yl]methyl}piperazin-1-yl)-N-({4-[(2,2-dimethyltetrahydro-2H-pyran-4-yl)methoxy]-3-nitrophenyl}sulfonyl)-2-(1H-pyrrolo[2,3-b]pyridin-5-yloxy)benzamide]
200 nM	CC1(C)CCC(CN2CCN(c3ccc(C(=O)NS(=O)(=O)c4cc(Cl)c(NCC5CCOCC5)c(C#N)c4)c(Oc4cnc5[nH]ccc5c4)c3)CC2)=C(c2ccc(Cl)cc2)C1 [Example 52, N-({3-chloro-5-cyano-4-[(tetrahydro-2H-pyran-4-ylmethyl)amino]phenyl}sulfonyl)-4-(4-{[2-(4-chlorophenyl)-4,4-dimethylcyclohex-1-en-1-yl]methyl}piperazin-1-yl)-2-(1H-pyrrolo[2,3-b]pyridin-5-yloxy)benzamide]
1920 nM	CC1(C)CCC(CN2CCN(c3ccc(C(=O)NS(=O)(=O)c4cc(F)c(NCC5CCOCC5)cc4Cl)c(Oc4cnc5[nH]ccc5c4)c3)CC2)=C(c2ccc(Cl)cc2)C1 [Example 54, N-({2-chloro-5-fluoro-4-[(tetrahydro-2H-pyran-4-ylmethyl)amino]phenyl}sulfonyl)-4-(4-{[2-(4-chlorophenyl)-4,4-dimethylcyclohex-1-en-1-yl]methyl}piperazin-1-yl)-2-(1H-pyrrolo[2,3-b]pyridin-5-yloxy)benzamide]
86.5 nM	CC1(C)CCC(CN2CCN(c3ccc(C(=O)NS(=O)(=O)c4cnc(OCC5(F)CCOCC5)c(C#N)c4)c(Oc4cnc5[nH]ccc5c4)c3)CC2)=C(c2ccc(Cl)cc2)C1 [Example 56, 4-(4-{[2-(4-chlorophenyl)-4,4-dimethylcyclohex-1-en-1-yl]methyl}piperazin-1-yl)-N-({5-cyano-6-[(4-fluorotetrahydro-2H-pyran-4-yl)methoxy]pyridin-3-yl}sulfonyl)-2-(1H-pyrrolo[2,3-b]pyridin-5-yloxy)benzamide]
426 nM	CC1(C)CCC(CN2CCN(c3ccc(C(=O)NS(=O)(=O)c4cnc(OCCN5CCOCC5)c(C#N)c4)c(Oc4cnc5[nH]ccc5c4)c3)CC2)=C(c2ccc(Cl)cc2)C1 [Example 57, 4-(4-{[2-(4-chlorophenyl)-4,4-dimethylcyclohex-1-en-1-yl]methyl}piperazin-1-yl)-N-{[5-cyano-6-(2-morpholin-4-ylethoxy)pyridin-3-yl]sulfonyl}-2-(1H-pyrrolo[2,3-b]pyridin-5-yloxy)benzamide]

The next lines start with the compound.

Structure (SMILES)	EC50
CC1(C)CC(c2ccc(Cl)cc2)=C(CN2CCN(c3ccc(C(=O)NS(=O)(=O)c4ccc(NCC5CCOCC5)c(C(F)(F)F)c4)c(Oc4cnc5[nH]ccc5c4)c3)CC2)CO1 [Example 42, 4-(4-{[4-(4-chlorophenyl)-6,6-dimethyl-5,6-dihydro-2H-pyran-3-yl]methyl}piperazin-1-yl)-2-(1H-pyrrolo[2,3-b]pyridin-5-yloxy)-N-{[4-[(tetrahydro-2H-pyran-4-ylmethyl)amino]-3-(trifluoromethyl)phenyl]sulfonyl}benzamide]	534 nM
CC1(C)CC(c2ccc(Cl)cc2)=C(CN2CCN(c3ccc(C(=O)NS(=O)(=O)c4ccc(NCC5CCOCC5)c(S(=O)(=O)C(F)(F)F)c4)c(Oc4cnc5[nH]ccc5c4)c3)CC2)CO1 [Example 43, 4-(4-{[4-(4-chlorophenyl)-6,6-dimethyl-5,6-dihydro-2H-pyran-3-yl]methyl}piperazin-1-yl)-2-(1H-pyrrolo[2,3-b]pyridin-5-yloxy)-N-({4-[(tetrahydro-2H-pyran-4-ylmethyl)amino]-3-[(trifluoromethyl)sulfonyl]phenyl}sulfonyl)benzamide]	272 nM
CC1(C)CC(c2ccc(Cl)cc2)=C(CN2CCN(c3ccc(C(=O)NS(=O)(=O)c4ccc(N[C@H]5CC[C@H](N6CCOCC6)CC5)c(S(=O)(=O)C(F)(F)F)c4)c(Oc4cnc5[nH]ccc5c4)c3)CC2)CO1 [Example 44, Trans-4-(4-{[4-(4-chlorophenyl)-6,6-dimethyl-5,6-dihydro-2H-pyran-3-yl]methyl}piperazin-1-yl)-N-({4-[(4-morpholin-4-ylcyclohexyl)amino]-3-[(trifluoromethyl)sulfonyl]phenyl}sulfonyl)-2-(1H-pyrrolo[2,3-b]pyridin-5-yloxy)benzamide]	53.1 nM
CN1CCC(Nc2ccc(S(=O)(=O)NC(=O)c3ccc(N4CCN(CC5=C(c6ccc(Cl)cc6)CC(C)(C)OC5)CC4)cc3Oc3cnc4[nH]ccc4c3)cc2S(=O)(=O)C(F)(F)F)CC1 [Example 45, 4-(4-{[4-(4-chlorophenyl)-6,6-dimethyl-5,6-dihydro-2H-pyran-3-yl]methyl}piperazin-1-yl)-N-({4-[(1-methylpiperidin-4-yl)amino]-3-[(trifluoromethyl)sulfonyl]phenyl}sulfonyl)-2-(1H-pyrrolo[2,3-b]pyridin-5-yloxy)benzamide]	9.92 nM
CC(=O)N1CCC(Nc2ccc(S(=O)(=O)NC(=O)c3ccc(N4CCN(CC5=C(c6ccc(Cl)cc6)CC(C)(C)CC5)CC4)cc3Oc3cnc4[nH]ccc4c3)cc2[N+](=O)[O-])CC1 [Example 53, N-({4-[(1-acetylpiperidin-4-yl)amino]-3-nitrophenyl}sulfonyl)-4-(4-{[2-(4-chlorophenyl)-4,4-dimethylcyclohex-1-en-1-yl]methyl}piperazin-1-yl)-2-(1H-pyrrolo[2,3-b]pyridin-5-yloxy)benzamide]	66.7 nM
CC1(C)CCC(CN2CCN(c3ccc(C(=O)NS(=O)(=O)c4ccc(NCCCN5CCOCC5)c([N+](=O)[O-])c4)c(Oc4cnc5[nH]ccc5c4)c3)CC2)=C(c2ccc(Cl)cc2)C1 [Example 55, 4-(4-{[2-(4-chlorophenyl)-4,4-dimethylcyclohex-1-en-1-yl]methyl}piperazin-1-yl)-N-({4-[(3-morpholin-4-ylpropyl)amino]-3-nitrophenyl}sulfonyl)-2-(1H-pyrrolo[2,3-b]pyridin-5-yloxy)benzamide]	13.2 nM
COCCOCCS(=O)(=O)c1ccc(S(=O)(=O)NC(=O)c2ccc(N3CCN(CC4=C(c5ccc(Cl)cc5)CC(C)(C)CC4)CC3)cc2Oc2cnc3[nH]ccc3c2)cc1Cl [Example 58, N-[(3-chloro-4-{[2-(2-methoxyethoxy)ethyl]sulfonyl}phenyl)sulfonyl]-4-(4-{[2-(4-chlorophenyl)-4,4-dimethylcyclohex-1-en-1-yl]methyl}piperazin-1-yl)-2-(1H-pyrrolo[2,3-b]pyridin-5-yloxy)benzamide]	> 5000 nM
COCCOCCS(=O)(=O)c1ccc(S(=O)(=O)NC(=O)c2ccc(N3CCN(CC4=C(c5ccc(Cl)cc5)CC(C)(C)CC4)CC3)cc2Oc2cnc3[nH]ccc3c2)cc1[N+](=O)[O-] [Example 59, 4-(4-{[2-(4-chlorophenyl)-4,4-dimethylcyclohex-1-en-1-yl]methyl}piperazin-1-yl)-N-[(4-{[2-(2-methoxyethoxy)ethyl]sulfonyl}-3-nitrophenyl)sulfonyl]-2-(1H-pyrrolo[2,3-b]pyridin-5-yloxy)benzamide]	722 nM
CC1(C)CCC(CN2CCN(c3ccc(C(=O)NS(=O)(=O)c4ccc(O[C@H]5CC[C@H](N6CCOCC6)CC5)c([N+](=O)[O-])c4)c(Oc4cnc5[nH]ccc5c4)c3)CC2)=C(c2ccc(Cl)cc2)C1 [Example 60, Trans-4-(4-{[2-(4-chlorophenyl)-4,4-dimethylcyclohex-1-en-1-yl]methyl}piperazin-1-yl)-N-({4-[(4-morpholin-4-ylcyclohexyl)oxy]-3-nitrophenyl}sulfonyl)-2-(1H-pyrrolo[2,3-b]pyridin-5-yloxy)benzamide]	59.5 nM
